Experimental data taken from PubChem BioAssay AID200 (DTP/NCI, 2004).
Several values for one entry are separate records, joined by “and”; a condition that tells them apart may be missing. Equal values may be shown once. Toxic doses and inconclusive results are not listed.

Tested on: B6C3F1 mice, B16 melanoma ip, median survival T/C
Experiment: NCI In Vivo Anticancer Drug Screen. Data for tumor model B16 Melanoma (intraperitoneal) in B6C3F1 mice
Settings: endpoint: median survival time, higher = longer survival
Method in brief: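 Tumor-bearing mice received test compound; a separate group got vehicle only. Survival was then compared, with results reported as treated over control.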

[1] = dose: 12.5 mg/kg/injection, schedule: Q01DX009 (ip), vehicle: saline with Tween-80
[2] = dose: 25.0 mg/kg/injection, schedule: Q01DX009 (ip), vehicle: saline with Tween-80
[3] = dose: 50.0 mg/kg/injection, schedule: Q01DX009 (ip), vehicle: saline with Tween-80
[4] = dose: 12.5 mg/kg/injection, schedule: Q01DX009 (ip), vehicle: Klucel (hydroxypropylcellulose) (HPC)
[5] = dose: 25.0 mg/kg/injection, schedule: Q01DX009 (ip), vehicle: Klucel (hydroxypropylcellulose) (HPC)
[6] = dose: 50.0 mg/kg/injection, schedule: Q01DX009 (ip), vehicle: Klucel (hydroxypropylcellulose) (HPC)
[7] = dose: 100.0 mg/kg/injection, schedule: Q01DX009 (ip), vehicle: Klucel (hydroxypropylcellulose) (HPC)
[8] = dose: 200.0 mg/kg/injection, schedule: Q01DX009 (ip), vehicle: Klucel (hydroxypropylcellulose) (HPC)
[9] = dose: 400.0 mg/kg/injection, schedule: Q01DX009 (ip), vehicle: Klucel (hydroxypropylcellulose) (HPC)
[10] = dose: 25.0 mg/kg/injection, schedule: Q01DX009 (ip), vehicle: saline
[11] = dose: 50.0 mg/kg/injection, schedule: Q01DX009 (ip), vehicle: saline
[12] = dose: 100.0 mg/kg/injection, schedule: Q01DX009 (ip), vehicle: saline

Nc1nc(-c2ccccc2)c(N=O)c(=O)[nH]1
T/C (dose: 14.0 mg/kg/injection, schedule: Q01DX009 (ip), vehicle: saline with Tween-80): 96 % of control | T/C (dose: 28.0 mg/kg/injection, schedule: Q01DX009 (ip), vehicle: saline with Tween-80): 94 % of control | T/C (dose: 56.0 mg/kg/injection, schedule: Q01DX009 (ip), vehicle: saline with Tween-80): 91 % of control | T/C (dose: 112.0 mg/kg/injection, schedule: Q01DX009 (ip), vehicle: saline with Tween-80): 101 % of control

C/C(=N\NC(N)=O)c1cccc(/C(C)=N/NC(N)=O)n1
T/C (dose: 6.25 mg/kg/injection, schedule: Q01DX009 (ip), vehicle: saline with Tween-80): 93 % of control | T/C [1]: 96 % of control | T/C [2]: 87 % of control | T/C [3]: 90 % of control

CCc1ncnc2cc(OCC3CO3)c(OC)cc12 (stereo unspecified)
T/C (dose: 6.25 mg/kg/injection, schedule: Q01DX009 (ip), vehicle: suspension in saline): 118 % of control | T/C (dose: 50.0 mg/kg/injection, schedule: Q01DX009 (ip), vehicle: suspension in saline): 117 % of control

COc1cccc2c1C(=O)c1c(O)c3c(c(O)c1C2=O)C[C@@](O)(C(=O)CO)C[C@@H]3OC1CC(N)C(O)C(C)O1 (stereo partly specified)
T/C (dose: 0.12 mg/kg/injection, schedule: Q01DX009 (ip), vehicle: water): 166 % of control | T/C (dose: 0.13 mg/kg/injection, schedule: Q01DX009 (ip), vehicle: water): 195 % of control | T/C (dose: 0.25 mg/kg/injection, schedule: Q01DX009 (ip), vehicle: water): 188 % of control and 212 % of control and 252 % of control | T/C (dose: 0.5 mg/kg/injection, schedule: Q01DX001 (ip), vehicle: saline): 152 % of control and 159 % of control | T/C (dose: 0.5 mg/kg/injection, schedule: Q01DX009 (ip), vehicle: water): 226 % of control and 247 % of control and 285 % of control | T/C (dose: 1.0 mg/kg/injection, schedule: Q01DX001 (ip), vehicle: saline): 165 % of control and 193 % of control | T/C (dose: 1.0 mg/kg/injection, schedule: Q01DX009 (ip), vehicle: water): 264 % of control and 285 % of control and 320 % of control | T/C (dose: 2.0 mg/kg/injection, schedule: Q01DX001 (ip), vehicle: saline): 151 % of control and 192 % of control and 244 % of control | T/C (dose: 2.0 mg/kg/injection, schedule: Q01DX005 (ip), vehicle: saline): 326 % of control | T/C (dose: 2.0 mg/kg/injection, schedule: Q01DX009 (ip), vehicle: water): 229 % of control and 278 % of control and 285 % of control | T/C (dose: 4.0 mg/kg/injection, schedule: Q01DX001 (iv), vehicle: saline): 109 % of control | T/C (dose: 4.5 mg/kg/injection, schedule: Q01DX001 (ip), vehicle: saline): 195 % of control | T/C (dose: 9.0 mg/kg/injection, schedule: Q01DX001 (ip), vehicle: saline): 174 % of control and 255 % of control | T/C (dose: 18.0 mg/kg/injection, schedule: Q01DX001 (ip), vehicle: saline): 103 % of control | T/C (dose: 10.0 micrograms/kg/injection, schedule: Q01DX005 (ip), vehicle: saline): 100 % of control | T/C (dose: 10.0 micrograms/mouse/injection, schedule: Q01DX005 (ip), vehicle: saline): 220 % of control | T/C (dose: 20.0 micrograms/kg/injection, schedule: Q01DX005 (ip), vehicle: saline): 116 % of control | T/C (dose: 20.0 micrograms/mouse/injection, schedule: Q01DX005 (ip), vehicle: saline): 197 % of control | T/C (dose: 40.0 micrograms/mouse/injection, schedule: Q01DX005 (ip), vehicle: saline): 273 % of control

CCCCCCCCCCCCCCC/C([O-])=N/[N+](C)(C)CC(C)O (stereo unspecified)
T/C (dose: 25.0 mg/kg/injection, schedule: Q01DX001 (ip), vehicle: saline with Tween-80): 105 % of control | T/C (dose: 50.0 mg/kg/injection, schedule: Q01DX001 (ip), vehicle: saline with Tween-80): 96 % of control | T/C (dose: 50.0 mg/kg/injection, schedule: Q01DX001 (ip), vehicle: saline): 105 % of control | T/C (dose: 100.0 mg/kg/injection, schedule: Q01DX001 (ip), vehicle: saline with Tween-80): 97 % of control | T/C (dose: 200.0 mg/kg/injection, schedule: Q01DX001 (ip), vehicle: saline with Tween-80): 104 % of control | T/C (dose: 200.0 mg/kg/injection, schedule: Q01DX001 (ip), vehicle: saline): 86 % of control | T/C (dose: 400.0 mg/kg/injection, schedule: Q01DX001 (ip), vehicle: saline with Tween-80): 100 % of control

CCOC(=O)C(Cc1ccc(O)cc1)NC(=O)c1ccccc1 (stereo unspecified)
T/C (dose: 40.0 mg/kg/injection, schedule: Q01DX009 (ip), vehicle: saline with Tween-80): 116 % of control | T/C (dose: 80.0 mg/kg/injection, schedule: Q01DX009 (ip), vehicle: saline with Tween-80): 96 % of control | T/C (dose: 160.0 mg/kg/injection, schedule: Q01DX009 (ip), vehicle: saline with Tween-80): 112 % of control | T/C (dose: 320.0 mg/kg/injection, schedule: Q01DX009 (ip), vehicle: saline with Tween-80): 96 % of control | T/C (dose: 640.0 mg/kg/injection, schedule: Q01DX009 (ip), vehicle: saline with Tween-80): 101 % of control

O=c1ssc(=Nc2ccccc2)n1-c1ccccc1
T/C [4]: 98 % of control | T/C [5]: 101 % of control | T/C [6]: 96 % of control | T/C [7]: 97 % of control | T/C [8]: 92 % of control | T/C [9]: 96 % of control

CC(=O)OCC1OC(n2ccc(N)nc2=O)C(OC(C)=O)C1OC(C)=O (stereo unspecified)
T/C (dose: 12.5 mg/kg/injection, schedule: Q01DX009 (ip), vehicle: saline): 106 % of control | T/C [10]: 104 % of control | T/C [11]: 109 % of control | T/C [12]: 108 % of control | T/C (dose: 200.0 mg/kg/injection, schedule: Q01DX009 (ip), vehicle: saline): 120 % of control

Cc1cc(=NO)cc(C)n1O
T/C (dose: 25.0 mg/kg/injection, schedule: Q01DX009 (ip), vehicle: distilled water + alcohol): 109 % of control and 94 % of control | T/C (dose: 50.0 mg/kg/injection, schedule: Q01DX009 (ip), vehicle: distilled water + alcohol): 98 % of control and 105 % of control | T/C (dose: 100.0 mg/kg/injection, schedule: Q01DX009 (ip), vehicle: distilled water + alcohol): 87 % of control and 92 % of control | T/C (dose: 200.0 mg/kg/injection, schedule: Q01DX009 (ip), vehicle: distilled water + alcohol): 92 % of control | T/C (dose: 400.0 mg/kg/injection, schedule: Q01DX009 (ip), vehicle: distilled water + alcohol): 86 % of control and 89 % of control

O=C(NC(Cc1ccc(I)cc1)C(=O)O)c1cccc(Br)c1 (stereo unspecified)
T/C [5]: 100 % of control | T/C [6]: 104 % of control | T/C [7]: 105 % of control | T/C [8]: 103 % of control | T/C [9]: 89 % of control

C=C(C)CNC1=C(C)C(=O)C2=C(C1=O)[C@H](COC(N)=O)[C@]1(OC)[C@@H]3N[C@@H]3CN21
T/C (dose: 0.5 mg/kg/injection, schedule: Q01DX001 (ip), vehicle: distilled water + Tween-80): 122 % of control | T/C (dose: 4.0 mg/kg/injection, schedule: Q01DX001 (ip), vehicle: distilled water + Tween-80): 160 % of control | T/C (dose: 8.0 mg/kg/injection, schedule: Q01DX001 (ip), vehicle: distilled water + Tween-80): 186 % of control | T/C (dose: 16.0 mg/kg/injection, schedule: Q01DX001 (ip), vehicle: distilled water + Tween-80): 226 % of control

N#Cc1ccc(NC(=O)Nc2nncs2)cc1
T/C [1]: 120 % of control and 105 % of control | T/C [2]: 118 % of control and 107 % of control | T/C [3]: 111 % of control

COC(=O)c1ccc(O)cc1
T/C [1]: 92 % of control | T/C [2]: 103 % of control | T/C [3]: 106 % of control | T/C (dose: 100.0 mg/kg/injection, schedule: Q01DX009 (ip), vehicle: saline with Tween-80): 117 % of control | T/C (dose: 200.0 mg/kg/injection, schedule: Q01DX009 (ip), vehicle: saline with Tween-80): 101 % of control | T/C (dose: 400.0 mg/kg/injection, schedule: Q01DX009 (ip), vehicle: saline with Tween-80): 96 % of control

CCCCNc1ccc2nnc(C)n2n1
T/C (dose: 50.0 mg/kg/injection, schedule: Q01DX009 (ip), vehicle: DMSO): 98 % of control and 102 % of control | T/C (dose: 100.0 mg/kg/injection, schedule: Q01DX009 (ip), vehicle: DMSO): 110 % of control and 92 % of control | T/C (dose: 200.0 mg/kg/injection, schedule: Q01DX009 (ip), vehicle: DMSO): 92 % of control

CC(=O)OCC1OC(OC2=C(CC=C(C)C)C(=O)c3ccccc3C2=O)C(OC(C)=O)C(OC(C)=O)C1OC(C)=O (stereo unspecified)
T/C (dose: 3.12 mg/kg/injection, schedule: Q01DX009 (ip), vehicle: Klucel (hydroxypropylcellulose) (HPC)): 104 % of control | T/C (dose: 6.25 mg/kg/injection, schedule: Q01DX009 (ip), vehicle: Klucel (hydroxypropylcellulose) (HPC)): 95 % of control | T/C [4]: 98 % of control | T/C [5]: 106 % of control | T/C [6]: 94 % of control

CN1[C@@H](CC(=O)c2ccccc2)CCC[C@H]1CC(=O)c1ccccc1
T/C [10]: 104 % of control | T/C [11]: 112 % of control | T/C [12]: 98 % of control
